In US20260108526A1, “BIOMARKER FOR TREATMENT OF SOLID CANCER WITH IMIDAZO[4,5-b]PYRIDINE DERIVATIVE” (CHORDIA THERAPEUTICS INC., priority 2022, published 2026):
pIC50: −log10 of the molar value.

How the values were obtained:
Experiment in all cases: Cell viability, neuroblastoma cell lines (CellTiter-Glo)
Type in all cases: cell-based
CHP-212 = details: Homo sapiens, 96 h; CHP-212, MYCN gene amplification present, 4 days
Method: (§1) The neuroblastoma cell lines CHP-212, SK-N-BE(2), SK-N-DZ, LN-18, U-87 MG, and SW1088 were obtained from ATCC (American Type Culture Collection), and cultured with Dulbecco's modified Eagle's medium F-12 (DMEM-F12) supplemented with 10% FBS (both from Thermo Fisher Scientific, Walthman, MA) under conditions of 5% CO2 and 37° C. for use.
(§2) Each of the aforementioned six cell lines (4000 cells/90 μL for each case) was seeded in wells of a 96-well plate, and then 10 μL of medium containing DMSO alone or compound A (1 nM, 3 nM, 10 nM, 30 nM, 100 nM, 300 nM, 1000 nM, 3000 nM, and 10000 nM) was quickly added to give different final concentrations. After culturing for 4 days following the addition, the following evaluation of cell viabilities was carried out.
(§3) Evaluation of cell viabilities after different treatments was carried out by measuring intracellular adenosine triphosphate (ATP) with CellTiter-Glo. Specifically, 100 μL of CellTiter-Glo solution was added to each well, incubation was performed at room temperature for 15 minutes, and the chemiluminescence was then measured. The mean of each combination was calculated from the resulting data, and concentration response curves on cell viabilities as the emission intensity in the cells treated with DMSO alone was defined as 100% were drawn for single use or combined use of each agent.
(§4) The 50% inhibition concentration (IC50) of compound A was determined by using Graph Pad Prism software version 7.0 (GraphPad Software Inc.).

LN-18 = details: Homo sapiens, 96 h; LN-18, MYCN gene amplification absent, 4 days
Method: as §1, §2, §3, §4

SK-N-BE(2) = details: Homo sapiens, SKNBE2, 96 h, MYCN gene amplification present, 4 days
Method: as §1, §2, §3, §4

SK-N-DZ = details: Homo sapiens, 96 h, MYCN gene amplification present, 4 days
Method: as §1, §2, §3, §4

SW1088 = details: Homo sapiens, 96 h; SW1088, MYCN gene amplification absent, 4 days
Method: as §1, §2, §3, §4

U-87MG = details: Homo sapiens, 96 h, MYCN gene amplification absent, 4 days
Method: as §1, §2, §3, §4

pIC50 (CHP-212): 7.18
pIC50 (LN-18): 6.97
pIC50 (SK-N-BE(2)): 7.06
pIC50 (SK-N-DZ): 7.60
pIC50 (SW1088): 6.82
pIC50 (U-87MG): 7.00
SMILES: COc1ncnn2ccc(-c3cnc4nc(C)n(Cc5nnc([C@@H](C)F)o5)c4c3)c12 [compound A]
